Structures are written as SMILES.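 Assay format: 96-well plates, 48-hour exposure. Here, GI50 denotes the concentration required for 50% inhibition of growth. At the TGI there is no net growth.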 Some results are limits rather than exact numbers.

Some test systems named below: OVCAR-4 ovarian; IGROV1 ovarian; SF-539 CNS; SNB-75 CNS; ACHN renal; MALME-3M melanoma; HS 578T breast; HL-60(TB) leukemia; U251 CNS; OVCAR-3 ovarian.
Common to all, as to experiment: DTP human tumour cell line panel, 48 h

As for `C[C@]12CC[C@@H]3c4ccc(O)cc4C(O)C[C@H]3[C@@H]1CCC2=O` (stereo not given in full), the GI50 in the assay on OVCAR-4 ovarian was 61.1 µM; in the assay on IGROV1 ovarian, 58 µM; with SF-539 CNS it was above 100 µM; in the assay on SNB-75 CNS, 26.9 µM; in the assay with ACHN renal, above 100 µM; in the assay with MALME-3M melanoma it was above 100 µM. The GI50 in the assay on HS 578T breast, in the assay on HL-60(TB) leukemia, with U251 CNS and in the assay on OVCAR-3 ovarian was above 100 µM each time. The TGI in the assay on OVCAR-4 ovarian, in the assay with IGROV1 ovarian, in the assay on SF-539 CNS, in the assay on SNB-75 CNS, with ACHN renal and in the assay on MALME-3M melanoma was above 100 µM each time. In addition, the TGI with HS 578T breast, in the assay on HL-60(TB) leukemia, with U251 CNS and with OVCAR-3 ovarian was above 100 µM each time.
For `Cc1ccc(SC(=O)N2C(=S)NC(=NC3CCCCC3)C23CCCCC3)cc1`, the TGI in the assay on OVCAR-4 ovarian, in the assay with IGROV1 ovarian, in the assay on SF-539 CNS, with SNB-75 CNS, in the assay with ACHN renal and in the assay on MALME-3M melanoma was above 100 µM each time. The TGI in the assay on HS 578T breast, in the assay on HL-60(TB) leukemia, in the assay on U251 CNS and with OVCAR-3 ovarian was above 100 µM throughout.
`Cc1cc(N/N=C/c2nc(-c3ccc(Cl)cc3)oc2C)c2cc(Cl)ccc2n1`: the GI50 is 1.68 µM in the assay on OVCAR-4 ovarian; 3.38 µM in the assay on IGROV1 ovarian; 1.88 µM in the assay on SF-539 CNS; 1.68 µM in the assay on SNB-75 CNS; 1.95 µM in the assay with ACHN renal; 1.78 µM in the assay with MALME-3M melanoma. For the same molecule, the GI50 with HS 578T breast was 3.42 µM; in the assay with HL-60(TB) leukemia it was 1.98 µM; with U251 CNS it was 1.78 µM; with OVCAR-3 ovarian, 1.87 µM. In addition, the concentration for total growth inhibition (TGI) in the assay with OVCAR-4 ovarian turned out to be 3.33 µM; in the assay with IGROV1 ovarian it was 12.6 µM; in the assay on SF-539 CNS, 3.46 µM; in the assay on SNB-75 CNS, 3.68 µM; in the assay on ACHN renal it was 3.78 µM; in the assay on MALME-3M melanoma it was 3.36 µM. Further, the TGI in the assay with HS 578T breast came to 14.7 µM; with HL-60(TB) leukemia, 4.82 µM; in the assay on U251 CNS it was 3.37 µM; with OVCAR-3 ovarian, 3.45 µM.
`CCOc1c(Cl)cc(CNC(C)C(O)c2ccccc2)cc1OC` (stereo not given): the GI50 with OVCAR-4 ovarian was 21.6 µM; with IGROV1 ovarian, 70.6 µM; with SF-539 CNS, 16.8 µM; in the assay with SNB-75 CNS, 12.7 µM; with ACHN renal, 23.7 µM; with MALME-3M melanoma, 16.6 µM. The GI50 is 23.5 µM in the assay with HS 578T breast, 21.1 µM in the assay with HL-60(TB) leukemia, 19.5 µM in the assay with U251 CNS and 40.1 µM in the assay on OVCAR-3 ovarian. The total growth inhibition concentration (TGI) was 87.4 µM in the assay with OVCAR-4 ovarian; above 100 µM in the assay on IGROV1 ovarian; 34 µM with SF-539 CNS; 46.9 µM in the assay with SNB-75 CNS; above 100 µM in the assay on ACHN renal; 33.6 µM in the assay with MALME-3M melanoma. Moreover, the concentration for total growth inhibition (TGI) is 93 µM in the assay with HS 578T breast, 46.1 µM in the assay with HL-60(TB) leukemia, 46.1 µM with U251 CNS and above 100 µM with OVCAR-3 ovarian.
In the case of `Cc1c2ccc(N(C)c3ccnc(Nc4cccc(S(N)(=O)=O)c4)n3)cc2nn1C`, the GI50 in the assay on OVCAR-4 ovarian is 6.23 µM; in the assay on IGROV1 ovarian, 10.1 µM; in the assay with SF-539 CNS, 2.39 µM; in the assay on SNB-75 CNS, 4.33 µM; in the assay on ACHN renal it was 8.12 µM; in the assay with MALME-3M melanoma, 5.74 µM. The GI50 in the assay on HS 578T breast was 6.8 µM; with HL-60(TB) leukemia, 8.44 µM; with U251 CNS, 10.9 µM; in the assay with OVCAR-3 ovarian it was 14.2 µM. For the same molecule, the TGI with OVCAR-4 ovarian is above 25 µM; in the assay with IGROV1 ovarian, above 25 µM; with SF-539 CNS, above 20.4 µM; with SNB-75 CNS, above 22.9 µM; in the assay with ACHN renal, above 25 µM; with MALME-3M melanoma, 20.2 µM. Also, the TGI in the assay on HS 578T breast is above 25 µM; in the assay on HL-60(TB) leukemia, above 19.1 µM; with U251 CNS it was above 25 µM; in the assay on OVCAR-3 ovarian, above 25 µM.
On to `COc1cc(Cn2c(-c3nonc3N)nc3ccccc32)ccc1C`, for which the GI50 with OVCAR-4 ovarian is 0.731 µM; in the assay with IGROV1 ovarian, 1.22 µM; in the assay with SF-539 CNS it was 0.226 µM; with SNB-75 CNS, 0.248 µM; in the assay on ACHN renal, 0.726 µM; in the assay with MALME-3M melanoma, 0.526 µM. In addition, the 50% growth inhibitory concentration (GI50) with HS 578T breast was 0.326 µM; in the assay on HL-60(TB) leukemia, 0.345 µM; with U251 CNS, 0.501 µM; with OVCAR-3 ovarian, 0.328 µM. The total growth inhibition concentration (TGI) with OVCAR-4 ovarian was above 95.2 µM; in the assay with IGROV1 ovarian, above 61.6 µM; in the assay with SF-539 CNS, 0.663 µM; with SNB-75 CNS it was 1.13 µM; in the assay with ACHN renal, above 93.8 µM; with MALME-3M melanoma, 72.7 µM. Also, the total growth inhibition concentration (TGI) with HS 578T breast worked out at 24.4 µM; in the assay with HL-60(TB) leukemia it was 50.8 µM; in the assay on U251 CNS, 15.6 µM; in the assay on OVCAR-3 ovarian, 0.906 µM.
Regarding `c1nnc(NCNc2nncs2)s1`, the TGI in the assay with OVCAR-4 ovarian, in the assay with IGROV1 ovarian, in the assay on SF-539 CNS, in the assay on SNB-75 CNS, in the assay on ACHN renal and in the assay on MALME-3M melanoma was above 100 µM in each case. For the same molecule, the TGI with HS 578T breast, with HL-60(TB) leukemia, with U251 CNS and in the assay with OVCAR-3 ovarian was above 100 µM throughout.
With `OCC1OC(n2cnc3c(/C=C(/O)c4ccccc4)ncnc32)C(O)C1O` (stereo not given), the concentration for total growth inhibition (TGI) was above 88.1 µM in the assay with OVCAR-4 ovarian; above 100 µM in the assay with IGROV1 ovarian; above 100 µM in the assay on SF-539 CNS; above 25.1 µM in the assay with SNB-75 CNS; above 100 µM in the assay with ACHN renal; above 100 µM in the assay on MALME-3M melanoma. Besides, the TGI was above 100 µM with HS 578T breast, 24 µM in the assay on HL-60(TB) leukemia, above 100 µM with U251 CNS and above 100 µM with OVCAR-3 ovarian.
For `CNC(=S)N/N=C/c1ccc([N+](=O)[O-])s1`, the TGI with OVCAR-4 ovarian, with IGROV1 ovarian, in the assay with SF-539 CNS, in the assay with SNB-75 CNS, in the assay with ACHN renal and in the assay with MALME-3M melanoma was above 10 µM in each case. Also, the TGI was above 10 µM with HS 578T breast, above 10 µM in the assay on HL-60(TB) leukemia, above 10 µM with U251 CNS and 7.24 µM with OVCAR-3 ovarian.

A word on the GI50: it is the concentration giving 50% growth inhibition. Broadly, the TGI is the concentration giving total growth inhibition. A high value points to lower sensitivity of the cells.

The values above are taken from PubChem BioAssay (NCI).
